# Measurements: publication PMC9669016, “First-in-human phase Ia study of the PI3Kα inhibitor CYH33 in patients with solid tumors” (Nature Communications, 2022)
# Like-named read-outs stand apart in the source and are kept apart here.
# Assay: Clinical pharmacokinetics: plasma CYH33 and I27 by LC/MS/MS
# Type: in vivo, human
# Settings: for AUC(0-t) / Cmax / Tmax / concentration at 0.5 h / concentration at 24 h / concentration at 72 h / concentration at 4 h / concentration at 12 h / concentration at 0 h / AUC(0-inf) / half-life: human, plasma; for AUC(0-inf): read-out: AUC0-∞, mean (CV%)
# Experimental: The PK characteristics of CYH33 and its active metabolite I27 were evaluated after single and multiple dose administrations. PK data were obtained from 37 patients from 7 dose cohorts: 1 mg (n = 1), 5 mg (n = 1), 10 mg (n = 2), 20 mg (n = 6), 30 mg (n = 12), 40 mg (n = 13), and 60 mg (n = 2). Intensive and sparse PK sampling was performed. Prior to initiating a continuous daily treatment cycle, the first 5 patients participated in a single dose PK treatment period with a 7-day washout in order to determine the terminal-phase half-life (t1/2) of CYH33 and its active metabolite I27. Based on the single dose PK data for CYH33 of the first 5 patients at doses of 1, 5, 10 and 20 mg, the PK and metabolic characteristics of CYH33 and I27 were evaluated. Combined with the pre-specified rules in the protocol and deliberation from the SMC, subsequent patients directly entered the continuous dose phase.
# Blood samples for PK evaluation were collected at: (1) during the single dose phase: on day 1 pre-dose and 0.5, 1, 2, 4, 8, 12, 24, 36, 48, and 72 h post-dose; (2) during the continuous dose phase: C1D1/Cycle 1 Day 28 pre-dose, and 0.5, 1, 2, 3, 4, 6, 8, 12, and 24 h post-dose; and C1D8/Day 15 pre-dose. Plasma concentrations of CYH33 and I27 were analyzed using a liquid chromatography-tandem mass spectrometry (LC/MS/MS) assay (Shimadzu Corporation, LC-30AD) with a lower limit of quantification (LLOQ) of 2.585 ng/mL and 1.0 ng/mL for CYH33 and I27, respectively. […] Blood samples for measuring the FBG level were collected within 30 min before dosing on C1D1, C1D15, and on the first day of subsequent treatment cycles.
# [1] = CYH33, Cycle 1 Day 28, 1 mg (n=1)
# [2] = CYH33, Cycle 1 Day 28, 5 mg (n=1)
# [3] = CYH33, Cycle 1 Day 28, 10 mg (n=2)
# [4] = CYH33, Cycle 1 Day 28, 20 mg (n=6)
# [5] = CYH33, Cycle 1 Day 28, 30 mg (n=9)
# [6] = CYH33, Cycle 1 Day 28, 40mg (n=7)
# [7] = CYH33, Cycle 1 Day 28, 60 mg (n=2)
smiles,measurement,setting,value
"COC(=O)Nc1cc(C(F)(F)F)c(-c2nc(N3CCOCC3)c3cc(CN4CCN(S(C)(=O)=O)CC4)cn3n2)cn1 [CYH33, methyl (5-(6-((4-(methylsulfonyl)piperazin-1-yl)methyl)−4-morpholinopyrrolo[2,1-f][1,2,4]triazin-2-yl)−4-(trifluoromethyl)pyridin-2-yl)carbamate]","Cmin, mean",[1],0 ng/mL
same,"Rac_AUC, mean",[1],2.0
same,"Rac_Cmax, mean",[1],1.0
same,"CLss/F, mean",[2],8.6 L/h
same,"Cmin, mean",[2],15.1 ng/mL
same,"Rac_AUC, mean",[2],2.2
same,"Rac_Cmax, mean",[2],2.3
same,"CLss/F, mean",[3],8.2 L/h
same,"Cmin, mean",[3],33.4 ng/mL
same,"Rac_AUC, mean",[3],2.0
same,"Rac_Cmax, mean",[3],1.8
same,"CLss/F, mean",[4],8.1 L/h
same,"Cmin, mean",[4],80.8 ng/mL
same,"Rac_AUC, mean",[4],4.2
same,"Rac_Cmax, mean",[4],3.3
same,"CLss/F, mean",[5],11.0 L/h
same,"Cmin, mean",[5],111.4 ng/mL
same,"Rac_AUC, mean",[5],2.9
same,"Rac_Cmax, mean",[5],1.9
same,"CLss/F, mean",[6],11.8 L/h
same,"Cmin, mean",[6],126.5 ng/mL
same,"Rac_AUC, mean",[6],4.3
same,"Rac_Cmax, mean",[6],3.2
same,"CLss/F, mean",[7],15.9 L/h
same,"Cmin, mean",[7],133.2 ng/mL
same,"Rac_AUC, mean",[7],3.2
same,"Rac_Cmax, mean",[7],2.2
same,average accumulation of exposure (AUC0-24h) at steady state vs Cycle 1 Day 1,daily dosing,around 2.9 fold
same,time to steady state,daily dosing,≤ 8 days
same,AUC(0-t),"oral, 1 mg, CYH33, Cycle 1 Day 1, 1 mg (n = 1), read-out: AUC0-24h, mean (CV%)",26 ng·h/mL
same,Cmax,"oral, 1 mg, CYH33, Cycle 1 Day 1, 1 mg (n = 1), read-out: Cmax, mean (CV%)",4.6 ng/mL
same,Tmax,"oral, 1 mg, CYH33, Cycle 1 Day 1, 1 mg (n = 1), read-out: Tmax, median (min-max)",1 h
same,AUC(0-t),"oral, 1 mg, CYH33, Cycle 1 Day 28, 1 mg (n=1), read-out: AUC0-24h, mean",51.6 ng·h/mL
same,Cmax,"oral, 1 mg, CYH33, Cycle 1 Day 28, 1 mg (n=1), read-out: Cmax, mean",4.8 ng/mL
same,Tmax,"oral, 1 mg, CYH33, Cycle 1 Day 28, 1 mg (n=1), read-out: Tmax, median",4 h
same,AUC(0-t),"oral, 5 mg, CYH33, Cycle 1 Day 1, 5 mg (n = 1), read-out: AUC0-24h, mean (CV%)",266 ng·h/mL
same,Cmax,"oral, 5 mg, CYH33, Cycle 1 Day 1, 5 mg (n = 1), read-out: Cmax, mean (CV%)",24.6 ng/mL
same,Tmax,"oral, 5 mg, CYH33, Cycle 1 Day 1, 5 mg (n = 1), read-out: Tmax, median (min-max)",2 h
same,AUC(0-t),"oral, 5 mg, CYH33, Cycle 1 Day 28, 5 mg (n=1), read-out: AUC0-24h, mean",582 ng·h/mL
same,Cmax,"oral, 5 mg, CYH33, Cycle 1 Day 28, 5 mg (n=1), read-out: Cmax, mean",56.2 ng/mL
same,Tmax,"oral, 5 mg, CYH33, Cycle 1 Day 28, 5 mg (n=1), read-out: Tmax, median",1 h
same,AUC(0-t),"oral, 10 mg, CYH33, Cycle 1 Day 1, 10 mg (n = 2), read-out: AUC0-24h, mean (CV%)",624 ng·h/mL
same,Cmax,"oral, 10 mg, CYH33, Cycle 1 Day 1, 10 mg (n = 2), read-out: Cmax, mean (CV%)",43.1 ng/mL
same,Tmax,"oral, 10 mg, CYH33, Cycle 1 Day 1, 10 mg (n = 2), read-out: Tmax, median (min-max)",4 h
same,AUC(0-t),"oral, 10 mg, CYH33, Cycle 1 Day 28, 10 mg (n=2), read-out: AUC0-24h, mean",1230 ng·h/mL
same,Cmax,"oral, 10 mg, CYH33, Cycle 1 Day 28, 10 mg (n=2), read-out: Cmax, mean",78.9 ng/mL
same,Tmax,"oral, 10 mg, CYH33, Cycle 1 Day 28, 10 mg (n=2), read-out: Tmax, median",3 h
same,AUC(0-t),"oral, 20 mg, CYH33, Cycle 1 Day 1, 20 mg (n = 5), read-out: AUC0-24h, mean (CV%)",763 ng·h/mL
same,Cmax,"oral, 20 mg, CYH33, Cycle 1 Day 1, 20 mg (n = 5), read-out: Cmax, mean (CV%)",56.3 ng/mL
same,Tmax,"oral, 20 mg, CYH33, Cycle 1 Day 1, 20 mg (n = 5), read-out: Tmax, median (min-max)",2 h
same,AUC(0-t),"oral, 20 mg, CYH33, Cycle 1 Day 28, 20 mg (n=6), read-out: AUC0-24h, mean",2630 ng·h/mL
same,Cmax,"oral, 20 mg, CYH33, Cycle 1 Day 28, 20 mg (n=6), read-out: Cmax, mean",154 ng/mL
same,Tmax,"oral, 20 mg, CYH33, Cycle 1 Day 28, 20 mg (n=6), read-out: Tmax, median",3 h
same,AUC(0-t),"oral, 30 mg, CYH33, Cycle 1 Day 1, 30 mg (n = 12), read-out: AUC0-24h, mean (CV%)",1300 ng·h/mL
same,Cmax,"oral, 30 mg, CYH33, Cycle 1 Day 1, 30 mg (n = 12), read-out: Cmax, mean (CV%)",96.5 ng/mL
same,Tmax,"oral, 30 mg, CYH33, Cycle 1 Day 1, 30 mg (n = 12), read-out: Tmax, median (min-max)",3.5 h
same,AUC(0-t),"oral, 30 mg, CYH33, Cycle 1 Day 28, 30 mg (n=9), read-out: AUC0-24h, mean",3530 ng·h/mL
same,Cmax,"oral, 30 mg, CYH33, Cycle 1 Day 28, 30 mg (n=9), read-out: Cmax, mean",187 ng/mL
same,Tmax,"oral, 30 mg, CYH33, Cycle 1 Day 28, 30 mg (n=9), read-out: Tmax, median",3 h
same,AUC(0-t),"oral, 40 mg, CYH33, Cycle 1 Day 1, 40 mg (n = 3), read-out: AUC0-24h, mean (CV%)",1320 ng·h/mL
same,Cmax,"oral, 40 mg, CYH33, Cycle 1 Day 1, 40 mg (n = 3), read-out: Cmax, mean (CV%)",97.9 ng/mL
same,Tmax,"oral, 40 mg, CYH33, Cycle 1 Day 1, 40 mg (n = 3), read-out: Tmax, median (min-max)",2 h
same,AUC(0-t),"oral, 40 mg, CYH33, Cycle 1 Day 28, 40mg (n=7), read-out: AUC0-24h, mean",3940 ng·h/mL
same,Cmax,"oral, 40 mg, CYH33, Cycle 1 Day 28, 40mg (n=7), read-out: Cmax, mean",224 ng/mL
same,Tmax,"oral, 40 mg, CYH33, Cycle 1 Day 28, 40mg (n=7), read-out: Tmax, median",4 h
same,AUC(0-t),"oral, 60 mg, CYH33, Cycle 1 Day 1, 60 mg (n = 4), read-out: AUC0-24h, mean (CV%)",1870 ng·h/mL
same,Cmax,"oral, 60 mg, CYH33, Cycle 1 Day 1, 60 mg (n = 4), read-out: Cmax, mean (CV%)",123 ng/mL
same,Tmax,"oral, 60 mg, CYH33, Cycle 1 Day 1, 60 mg (n = 4), read-out: Tmax, median (min-max)",4 h
same,AUC(0-t),"oral, 60 mg, CYH33, Cycle 1 Day 28, 60 mg (n=2), read-out: AUC0-24h, mean",4010 ng·h/mL
same,Cmax,"oral, 60 mg, CYH33, Cycle 1 Day 28, 60 mg (n=2), read-out: Cmax, mean",220 ng/mL
same,Tmax,"oral, 60 mg, CYH33, Cycle 1 Day 28, 60 mg (n=2), read-out: Tmax, median",2.5 h
same,concentration at 0.5 h,"oral, C1D1, 1 mg",1.9 ng/mL
same,concentration at 24 h,"oral, C1D1, 1 mg",0 ng/mL
same,concentration at 0.5 h,"oral, C1D1, 5 mg",0 ng/mL
same,concentration at 24 h,"oral, C1D1, 5 mg",5.9 ng/mL
same,concentration at 72 h,"oral, C1D1, 5 mg",0 ng/mL
same,concentration at 0.5 h,"oral, C1D1, 10 mg",14 ng/mL
same,concentration at 4 h,"oral, C1D1, 10 mg",43.1 ng/mL
same,concentration at 24 h,"oral, C1D1, 10 mg",17.4 ng/mL
same,concentration at 72 h,"oral, C1D1, 10 mg",3.2 ng/mL
same,concentration at 4 h,"oral, C1D1, 20 mg",43.9 ng/mL
same,concentration at 12 h,"oral, C1D1, 20 mg",29.5 ng/mL
same,concentration at 24 h,"oral, C1D1, 20 mg",22.3 ng/mL
same,concentration at 72 h,"oral, C1D1, 20 mg",7.1 ng/mL
same,concentration at 4 h,"oral, C1D1, 30 mg",81.2 ng/mL
same,concentration at 12 h,"oral, C1D1, 30 mg",49.9 ng/mL
same,concentration at 0.5 h,"oral, C1D1, 40 mg",33.8 ng/mL
same,concentration at 24 h,"oral, C1D1, 40 mg",45.2 ng/mL
same,concentration at 0.5 h,"oral, C1D1, 60 mg",21.9 ng/mL
same,concentration at 24 h,"oral, C1D1, 60 mg",61.4 ng/mL
same,concentration at 0 h,"oral, C1D28, 1 mg",0 ng/mL
same,concentration at 0 h,"oral, C1D28, 5 mg",15.5 ng/mL
same,concentration at 0 h,"oral, C1D28, 10 mg",34.8 ng/mL
same,concentration at 0 h,"oral, C1D28, 20 mg",85.1 ng/mL
same,concentration at 0 h,"oral, C1D28, 30 mg",113 ng/mL
same,concentration at 24 h,"oral, C1D28, 30 mg",124 ng/mL
same,concentration at 0 h,"oral, C1D28, 40 mg",141 ng/mL
same,concentration at 0 h,"oral, C1D28, 60 mg",147 ng/mL
same,AUC(0-inf),"oral, CYH33, Cycle 1 Day 1, 1 mg (n = 1)",36.8 ng·h/mL
same,AUC(0-inf),"oral, CYH33, Cycle 1 Day 1, 5 mg (n = 1)",429 ng·h/mL
same,half-life,"oral, CYH33, Cycle 1 Day 1, 5 mg (n = 1), read-out: t1/2, mean (CV%) (converted)",19.2 h
same,AUC(0-inf),"oral, CYH33, Cycle 1 Day 1, 10 mg (n = 2)",1090 ng·h/mL
same,half-life,"oral, CYH33, Cycle 1 Day 1, 10 mg (n = 2), read-out: t1/2, mean (CV%) (converted)",20.2 h
same,AUC(0-inf),"oral, CYH33, Cycle 1 Day 1, 20 mg (n = 5)",2190 ng·h/mL
same,half-life,"oral, CYH33, Cycle 1 Day 1, 20 mg (n = 5), read-out: t1/2, mean (CV%) (converted)",20.8 h
same,Tmax,"po, dose range 1–60 mg, read-out: median time to maximum plasma concentration (Tmax)",1 to 4 h
same,half-life,"oral CYH33, read-out: t1/2 (converted)",~20 h
